Measurements: the supplement of paper PMC7840683
± gives the standard deviation of the averaged measurements.

Tested on: HepaRG
Assay: LDH release cytotoxicity, % of total lysis control; higher = more cytotoxic
Conditions: 48 h
Outline: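 Single-lot HepaRG cells in collagen I-coated 96-well plates were treated for 48 h in serum-free induction medium containing 0.5% DMSO with test chemicals in eight-point half-log series up to 100 µM. For total lysis, wells received 0.1% Triton X. LDH in 50 µL spent medium was assayed by resorufin fluorescence with CytoTox-ONE. Percent cytotoxicity was normalized to the on-plate vehicle and total lysis controls, with duplicates averaged.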

| SMILES | LDH release cytotoxicity (0.03162 µM) | LDH release cytotoxicity (0.1 µM) | LDH release cytotoxicity (0.3162278 µM) | LDH release cytotoxicity (1 µM) | LDH release cytotoxicity (3.16228 µM) | LDH release cytotoxicity (10 µM) | LDH release cytotoxicity (31.6228 µM) | LDH release cytotoxicity (100 µM) | further results |
| --- | --- | --- | --- | --- | --- | --- | --- | --- | --- |
| Nc1ccccc1N [1,2-Phenylenediamine] | -3.74 ± 0.12% | -3.27 ± 0.9% | -2.8 ± 0.61% | -1.88 ± 0.13% | -3.1 ± 0.2% | -2.74 ± 0.21% | -2.23 ± 1.2% | -1.05 ± 2.2% |  |
| CCN(C(=O)c1cc(C)cc(OCC(C)Nc2ccncc2)c1)C(C)C (configuration not stated) |  |  |  |  |  |  |  |  | LDH release cytotoxicity (0.02135 µM): -1.12 ± 0.23%; LDH release cytotoxicity (0.0675 µM): -0.177 ± 0.3%; LDH release cytotoxicity (0.2134537 µM): -0.209 ± 0.26%; LDH release cytotoxicity (0.675 µM): 0.1 ± 0.83%; LDH release cytotoxicity (2.13454 µM): -0.21 ± 0.13%; LDH release cytotoxicity (6.75 µM): -0.0445 ± 0.25%; LDH release cytotoxicity (21.345374 µM): 0.884 ± 0.24%; LDH release cytotoxicity (67.5 µM): 19 ± 3.4% |
| COc1ccc(C(=CC(=O)N2CCOCC2)c2ccc(Cl)cc2)cc1OC [Dimethomorph] | -0.689 ± 0.5% | -1.52 ± 0.24% | -1.7 ± 0.055% | -1.1 ± 0.47% | -0.768 ± 0.71% | -0.565 ± 0.54% | -0.618 ± 0.33% | 1.09 ± 0.43% |  |
| O=c1ccc(=O)[nH][nH]1 [Maleic hydrazide] | -0.979 ± 0.52% | -0.493 ± 0.19% | -1.74 ± 0.22% | -0.384 ± 0.92% | -1.91 ± 0.55% | -1.15 ± 0.52% | 0.124 ± 0.07% | 2.69 ± 1.4% |  |
| O=[N+]([O-])c1ccc(O)cc1 [Sodium 4-nitrophenolate] | -0.704 ± 0.2% | -1.68 ± 0.15% | -1.99 ± 0.34% | -1.48 ± 0.37% | -1.71 ± 0.25% | -1.02 ± 0.3% | -0.45 ± 0.45% | 0.91 ± 0.54% |  |
| COCC(=O)N(c1c(C)cccc1C)C(C)C(=O)OC (configuration not stated) [Metalaxyl] | -1.86 ± 0.61% | -0.811 ± 0.78% | -0.303 ± 0.27% | -0.996 ± 0.099% | -0.0482 ± 0.74% | -0.0413 ± 0.72% | 0.228 ± 0.89% | 2.83 ± 2.6% |  |
| Cc1ccccc1COC1CC2(C(C)C)CCC1(C)O2 (configuration not stated) [Cinmethylin] | -0.203 ± 0.059% | -1.15 ± 0.52% | -1.3 ± 0.27% | -1.23 ± 0.093% | -1.09 ± 0.76% | -0.853 ± 0.059% | -0.668 ± 0.63% | 1.99 ± 1.4% |  |
| O=C(c1ccccc1)C1CCCCC1 [Cyclohexylphenylketone] | -1.79 ± 0.41% | -2.63 ± 2.5% | -0.957 ± 0.23% | -1.4 ± 1% | -1.03 ± 1% | -0.851 ± 0.87% | -0.8 ± 0.37% | 0.0978 ± 0.62% |  |
| CCCCCCCCCC(=O)O [Decanoic acid] | -1.36 ± 0.57% | -2.46 ± 0.9% | -1.69 ± 0.25% | -1.7 ± 0.25% | -1.42 ± 0.15% | -1.16 ± 0.079% | -0.917 ± 0.64% | -0.408 ± 0.48% |  |
| CC(=O)[O][Hg][c]1ccccc1 [Phenylmercuric acetate] | -1.79 ± 0.027% | -0.0392 ± 0.1% | 3.3 ± 0.71% | 13.6 ± 5% | 23.5 ± 4.7% | 45.48 ± 0.45% | -7.82 ± 0.28% | -8.63 ± 0.18% |  |
| NC(=O)NO [Hydroxyurea] | -2.94 ± 1.1% | -1.59 ± 1.4% | -2.4 ± 0.64% | -2.62 ± 0.18% | -1.83 ± 0.11% | -1.79 ± 0.38% | -0.278 ± 0.73% | 2.82 ± 1.5% |  |
| O=C1C2CC=CCC2C(=O)N1SC(Cl)(Cl)Cl (configuration not stated) [Captan] |  |  |  |  |  |  |  |  | LDH release cytotoxicity (0.03115 µM): -0.761 ± 0.69%; LDH release cytotoxicity (0.0985 µM): -0.69 ± 1%; LDH release cytotoxicity (0.311484 µM): -1.02 ± 0.74%; LDH release cytotoxicity (0.985 µM): -1.31 ± 0.14%; LDH release cytotoxicity (3.11484 µM): -1.78 ± 0.61%; LDH release cytotoxicity (9.85 µM): -0.651 ± 0.36%; LDH release cytotoxicity (31.1484 µM): 0.632 ± 0.25%; LDH release cytotoxicity (98.5 µM): 27.6 ± 5.5% |
| [N-]=[N+]=[N-] [Sodium azide] | -0.587 ± 0.19% | -0.947 ± 0.078% | -1.17 ± 1.3% | -1.29 ± 0.45% | -1.23 ± 0.56% | -0.668 ± 0.061% | -0.413 ± 0.77% | 7.38 ± 1.2% |  |
| CCCCCCCCCCCCCCCCO [1-Hexadecanol] |  |  |  |  |  |  |  |  | LDH release cytotoxicity (0.0320971 µM): -2.16 ± 0.6%; LDH release cytotoxicity (0.1015 µM): -2.95 ± 0.21%; LDH release cytotoxicity (0.320971 µM): -2.48 ± 0.093%; LDH release cytotoxicity (1.015 µM): -3.51 ± 0.26%; LDH release cytotoxicity (3.2097118 µM): -3.1 ± 0.27%; LDH release cytotoxicity (10.15 µM): -2.1 ± 0.81%; LDH release cytotoxicity (32.0971 µM): -1.56 ± 0.39%; LDH release cytotoxicity (101.5 µM): 3.36 ± 0.21% |
